From patent publication US20240426776A1, “RAPID DIFFERENTIATION OF ANTIBIOTIC-SUSCEPTIBLE AND -RESISTANT BACTERIA THROUGH MEDIATED EXTRACELLULAR ELECTRON TRANSFER” (priority 2021, published 2024)
Converted amounts (≈) assume the structure as drawn. “And” between values parts separate entries of the source, which are not always exact repeats. Identical values can stand only once. Like-named read-outs stand apart in the source and are kept apart here. Marks after values point to notes of the source that are not given here.

Experiments:
[1] = test system: Staphylococcus aureus (strains 29213 and 43300); test: Microdilution antibiotic susceptibility assay (MIC, CLSI guidelines); assay type: cell-based; conditions: for MIC: Staphylococcus aureus, MH media, oxacillin: 30° C., 18-24 h, 2% NaCl, read-out: estimated minimum inhibitory concentration from this study
Protocol: Testing for S. aureus susceptibility to oxacillin differed with incubation at 30° C. for 18-24 h in MH media supplemented with 2% NaCl.
Values listed in Table 2 below include the estimated minimum inhibitory concentration from this study (μg/mL), the determination of(S) sensitive or (R) resistant microbes according to CLSI criteria, and the CLSI guidelines (μg/mL) for the species being tested. Empty cells were not evaluated.

[2] = test system: Staphylococcus aureus (strains 29213 and 43300); test: READAS electrochemical current response with PMS mediator (ASIn); assay type: cell-based; conditions: for ASIn (antibiotic susceptibility index), single replicates: oxacillin 20× breakpoint (120 μg/mL), ASI20, 30° C., 15 μM PMS, 0.1 OD600
Protocol: Each measurement was replicated at least four times.
(S. aureus experiments) or 37° C. (all others) MH media.
The current responses measured follows a sigmoidal curve structure.
As a second example method of operation, the S. aureus strains selected from Table 2 were assessed. Initially, a 2×CLSI resistance breakpoint concentrations for two antibiotics oxacillin (12 μg/mL) and tobramycin (32 μg/mL) were used for the example method of operation. The ASI2<0.4 and it was concluded that the concentration of the antibiotics was insufficient to classify the strains as antibiotic-susceptible or -resistant. S. aureus was then treated with 4×, 6×, 8×, 10×, and 20× the breakpoint concentration of oxacillin and was compared to the control as depicted in FIG. 8A. […] S. aureus was also treated with 4× and 10× the breakpoint concentration of tobramycin and was compared to the control depicted in FIG. 8B. […] The efficacy of antibiotic was proportional to the concentration when a high cell density (1.1×10^8 CFU/mL) was used.
The ASIn analysis time for classifying the strains as resistant or susceptible for tobramycin treatment was 33-78 min which was 30 min less than needed for detecting oxacillin susceptibility which required 60-96 min.

[3] = test system: Gram-positive 1 ATCC 29213, Gram-positive 2 BAA-1026; test: READAS operator blinded test; assay type: cell-based; conditions: oxacillin 2× (12 μg/mL); for ASIn: OD600=0.1
Protocol: Tests were conducted for which the species or resistance phenotype was not known beyond the fact that one set was a Gram-positive and the other Gram-negative, and the antibiotics to be tested were oxacillin and imipenem, respectively. The isolates were provided as coded streak plates. Because the species were unknown, the breakpoint concentration of oxacillin and imipenem were estimated from the known breakpoints of the four previously tested strains (as shown in Table 1; 6 μg/mL for oxacillin, S. aureus and 6 μg/mL imipenem for Gram-negative strains). Following the decision methodology for determining antibiotic susceptibility and resistance of READAS, the strains were first tested with 2× the resistance breakpoint concentration (12 μg/mL oxacillin or imipenem) and the ASI2 was measured. This was increased up to 24× the resistance breakpoint concentration. If ASI2≥0.4 then the strain was considered susceptible. […] If neither strain achieved an ASI2≥0.4, 24× the resistance breakpoint concentration was tested and the ASI24 was measured.
As another example method of operation, operator blinded tests were conducted using susceptible and resistant strains of Gram-positive and -negative bacteria. Because the species identification was unknown, […] oxacillin was chosen as the estimated resistance breakpoint for the Gram-positive strain and 6 μg/mL imipenem was initially chosen as the resistance breakpoint for the Gram-negative strain. The stains selected for this example method of operation include Gram-positive 1 ATCC 29213, Gram-positive 2 BAA-1026, Gram-negative 1 AR55 and Gram-negative 2 AR58 with cultures of OD600=0.1, for simplicity.
(§1) Both Gram-positive strains were correctly classified using 2×(12 μg/mL oxacillin) in <120 min (97±45 min and 103±33 min). The Gram-negative strains were also correctly classified after increasing concentrations of imipenem from 2× to 20×(12 to 120 μg/mL imipenem). […] These phenotypic results were confirmed with results of standard procedure known to those skilled in the art and are included in Table 4 below, wherein READAS(S) susceptibility was defined by an ASIn≥0.4; (R) resistant was defined by an ASIn<0.4; analysis time shown in minutes. The standard procedure established susceptibility or resistance, MIC in μg/mL, and analysis time shown in hours.

[4] = test system: Gram-positive 1 ATCC 29213, Gram-positive 2 BAA-1026; test: Standard procedure confirming blinded test (susceptibility, MIC, analysis time); assay type: cell-based; set-up: key to Standard procedure susceptibility or resistance (second symbol of cell): S: The standard procedure established susceptibility or resistance; R: The standard procedure established susceptibility or resistance
Protocol: as §1

[5] = test system: Staphylococcus aureus (strains 29213 and 43300); conditions: cited from earlier work
A. baumannii strain 78 = test: Absorbance growth curves on increasing concentration of the electron transfer mediator; assay type: cell-based, Acinetobacter baumannii; conditions: PMS concentrations higher than 15 μM; MH media; FIG. 3B
Protocol: […] The wells were inoculated to 0.1 OD600 for a total volume of 200 μL. The plates were continuously mixed by an orbital motion and maintained at 37° C. or 30° C. for S. aureus and oxacillin. Absorbance growth curves were recorded at 600 nm for 24 h and growth curves were presented as the average of three technical replicates with standard deviation.
Error bars represent standard deviation of three replicates. With this PMS concentration of 15 μM, Gram-negative species of bacteria with OD600=0.1 (approximately 10^7 and 10^8 cells per mL; Table 2) consistently had analysis times in less than 90 min, as illustrated by FIG. 3C. The current magnitude is shown to increase with increasing cell density while the response time is seen to be decreased with increasing cell density. Error bars are the standard deviation of four replicates in FIG. 3C. Increasing the cell density also contributed to the “inoculum effect” of antibiotic efficacy resulting in the need for higher concentrations of antibiotics to differentiate sensitive and resistant strains.

| Structure (SMILES) | MIC ([1]; strain 29213) | MIC ([1]; strain 43300) | sensitive or resistant according to CLSI criteria ([1]; strain 29213) | sensitive or resistant according to CLSI criteria ([1]; strain 43300) | current response with increasing antibiotic concentration ([2]; oxacillin 4×, 6×, 8×, 10×, 20× breakpoint (FIG. 8A), tobramycin 4× and 10× (FIG. 8B), […]10^8 CFU/mL) | ASIn (antibiotic susceptibility index), single replicates ([2]; strain 29213 (susceptible)) | average ASI20 (±SE) ([2]; strain 43300 (resistant), oxacillin 20× (120 μg/mL)) | ASIn (antibiotic susceptibility index), single replicates ([2]; strain 43300 (resistant)) | READAS susceptibility (first symbol of cell) ([3]; Gram-positive 1 (ATCC 29213)) | ASIn ([3]; Gram-positive 1 (ATCC 29213)) | READAS susceptibility (first symbol of cell) ([3]; Gram-positive 2 (BAA-1026)) | ASIn ([3]; Gram-positive 2 (BAA-1026)) | MIC ([4]; Gram-positive 1 (ATCC 29213)) | Standard procedure susceptibility or resistance (second symbol of cell) ([4]; Gram-positive 1 (ATCC 29213)) | MIC ([4]; Gram-positive 2 (BAA-1026)) | Standard procedure susceptibility or resistance (second symbol of cell) ([4]; Gram-positive 2 (BAA-1026)) | CLSI guidelines (resistance breakpoint) for the species [5] | inhibition of bacterial growth by the electron transfer mediator (A. baumannii strain 78) |
| --- | --- | --- | --- | --- | --- | --- | --- | --- | --- | --- | --- | --- | --- | --- | --- | --- | --- | --- |
| Cc1onc(-c2ccccc2)c1C(=O)N[C@@H]1C(=O)N2[C@@H]1SC(C)(C)[C@@H]2C(=O)O [Oxacillin, oxacillin] | 0.5 µg/mL (≈ 1.25 µM) | 32 µg/mL (≈ 79.7 µM) | S | R | decreased with increasing oxacillin concentration except at low doses where no effect or an increase in the current is observed | 0.4 and 0.63 and 0.59 | 0.17±0.13 | 0.4 and 0.63 and 0.59 | S/S (READAS(S) susceptibility was defined by an ASIn≥0.4) | 0.55 ± 0.14^b | R/R ((R) resistant was defined by an ASIn<0.4) | −0.04 ± 0.19^b | 0.5 µg/mL (≈ 1.25 µM) | S/S | ≥ 4 µg/mL | R/R | 6 µg/mL | – |
| COS(=O)(=O)[O-].C[n+]1c2ccccc2nc2ccccc21 [PMS, phenazine methosulfate] | – | – | – | – | – | – | – | – | – | – | – | – | – | – | – | – | – | higher concentrations produced variable degrees of inhibition between strains |
